Measured values as given in US20030013099A1, “Genes regulated by DNA methylation in colon tumors” (priority 2001, published 2003).

System: HT29 cells
Assay: microarray differential expression, HT29 cells treated with 500 nM Aza
Assay type: cell-based, human
Conditions: vs untreated, log base 2, negative = upregulation
Procedure: HT29 cells were derived from a Grade II adenocarcinoma of the colon obtained from a person. HCT116 cells are a subpopulation of malignant cells isolated from a primary cell culture of a single human colonic carcinoma (Brattain et al. (1981) Cancer Res 41:1751-6). HMEC cells are a primary human epithelial cell line derived from the breast tissue of a normal donor. HT29 and HCT116 colorectal carcinoma cells (American Type Culture Collection, Manassas Va.) were cultured in McCoy's medium supplemented with 10% fetal bovine serum (Invitrogen) at 37° C. and 5% CO2. Treated cells were exposed to 500 nM 5-aza-2-deoxycytidine (Aza; Sigma-Aldrich) 24 hours after passage in complete culture medium. Control cultures were treated in parallel with phosphate buffered saline vehicle. After twenty-four hours, culture medium was replaced with drug-free medium. Control and Aza-treated cells were subcultured at equal densities at 1 and 5 days after the initial treatment, and proliferation was measured at the subsequent time point using a Coulter counter (Beckman Coulter, Fullerton Calif.). Cells were harvested 5 days after the initial treatment.
Cells were harvested and lysed in 1 ml of TRIZOL reagent (5×10^6 cells/ml; Invitrogen). The lysates were vortexed thoroughly and incubated at room temperature for 2-3 minutes and extracted with 0.5 ml chloroform. The extract was mixed, incubated at room temperature for 5 minutes, and centrifuged at 16,000× g for 15 minutes at 4° C. The aqueous layer was collected, and an equal volume of isopropanol was added. Samples were mixed, incubated at room temperature for 10 minutes, and centrifuged at 16,000× g for 20 minutes at 4° C. The supernatant was removed, and the RNA pellet was washed with 1 ml of 70% ethanol, centrifuged at 16,000× g at 4° C., and resuspended in RNAse-free water. The concentration of the RNA was determined by measuring the optical density at 260 nm.
Poly(A) RNA was prepared using an OLIGOTEX mRNA kit (Qiagen) with the following modifications: OLIGOTEX beads were washed in tubes instead of on spin columns, resuspended in elution buffer, and then loaded onto spin columns to recover mRNA. To obtain maximum yield, the mRNA was eluted twice.
Each poly(A) RNA sample was reverse transcribed using MMLV reverse-transcriptase, 0.05 pg/μl oligo-d(T) primer (21mer), 1× first strand buffer, 0.03 units/ul RNAse inhibitor, 500 uM dAT?, 500 uM dGTP, 500 uM dTTP, 40 uM dCTP, and 40 uM either dCTP-Cy3 or dCTP-Cy5 (APB). The reverse transcription reaction was performed in a […] volume containing 200 ng poly(A) RNA using the GEMBRIGHT kit (Incyte Genomics). Specific control poly(A) RNAs (YCFRO6, YCFR45, YCFR67, YCFR85, YCFR43, YCFR22, YCFR23, YCFR25, YCFR44, YCFR26) were synthesized by in vitro transcription from non-coding yeast genomic DNA (W. Lei, unpublished). As quantitative controls, control mRNAs (YCFRO6, YCFR45, YCFR67, and YCFR85) at 0.002 ng, 0.02 ng, 0.2 ng, and 2 ng were diluted into reverse transcription reaction at ratios of 1:100,000, 1:10,000, 1:1000, 1:100 (w/w) to sample mRNA, respectively. To sample differential expression patterns, control mRNAs (YCFR43, YCFR22, YCFR23, YCFR25, YCFR44, YCFR26) were diluted into reverse transcription reaction at ratios of 1:3, 3:1, 1:10, 10:1, 1:25, 25:1 (w/w) to sample mRNA. Reactions were incubated at 37° C. for 2 hours, treated with […] of 0.5M sodium hydroxide, and incubated for 20 minutes at 85° C. to the stop the reaction and degrade the RNA.
cDNAs were purified using two successive CHROMA SPIN 30 gel filtration spin columns (Clontech). Cy3- and Cy5-labeled reaction samples were combined as described below and ethanol precipitated using […] of 100% ethanol. The cDNAs were then dried to completion using a SpeedVAC system (Savant Instruments, Holbrook N.Y.) and resuspended in 14 μl 5× SSC, 0.2% SDS. […]

## Nc1ncn([C@H]2C[C@H](O)[C@@H](CO)O2)c(=O)n1 [Aza, 5-aza-2-deoxycytidine]
SEQ ID NO:1 hypothetical protein
  differential expression, Clone ID 2416222, HT29 t/ Aza (5d): −1.74
SEQ ID NO:2 Incyte Unique
  differential expression, Clone ID 4103545, HT29 t/ Aza (5d): −1.89
SEQ ID NO:3 interferon-inducible protein
  differential expression, Clone ID 322569, HT29 t/ Aza (5d): −4.17
SEQ ID NO:5 chromosome 6p21.3, HLA Class I region
  differential expression, Clone ID 5322134, HT29 t/ Aza (5d): −2.12
SEQ ID NO:6 unnamed protein product
  differential expression, Clone ID 1698458, HT29 t/ Aza (5d): −1.79
SEQ ID NO:7 KIAA1046 protein
  differential expression, Clone ID 1871523, HT29 t/ Aza (5d): −1.07
SEQ ID NO:8 putative tumor antigen
  differential expression, Clone ID 6024084, HT29 t/ Aza (5d): −2.79
SEQ ID NO:9 Incyte Unique
  differential expression, Clone ID 3810006, HT29 t/ Aza (5d): −0.92
SEQ ID NO:10 Incyte Unique
  differential expression, Clone ID 4508879, HT29 t/ Aza (5d): −0.85
SEQ ID NO:11 U 6 RNA
  differential expression, Clone ID 4225379, HT29 t/ Aza (5d): −0.85
SEQ ID NO:12 cDNA clone ZD16H10
  differential expression, Clone ID 3463713, HT29 t/ Aza (5d): −1.87
SEQ ID NO:13, 14 T-cell receptor gamma
  differential expression, Clone ID 2998017, HT29 t/ Aza (5d): −1.14
SEQ ID NO:15 pTR5 repetitive sequence
  differential expression, Clone ID 4318273, HT29 t/ Aza (5d): −1.58
SEQ ID NO:16 Hep27 protein
  differential expression, Clone ID 1649414, HT29 t/ Aza (5d): −1.20
SEQ ID NO:18 cDNA FLJ20222
  differential expression, Clone ID 1684742, HT29 t/ Aza (5d): −0.85
SEQ ID NO:19 KIAA0412
  differential expression, Clone ID 2825816, HT29 t/ Aza (5d): −1.84
SEQ ID NO:21 Incyte Unique
  differential expression, Clone ID 2440943, HT29 t/ Aza (5d): −1.07
SEQ ID NO:22 PDGF-B
  differential expression, Clone ID 1294339, HT29 t/ Aza (5d): −0.93
SEQ ID NO:23 cDNA FLJ10570
  differential expression, Clone ID 5104741, HT29 t/ Aza (5d): −0.93
SEQ ID NO:24 pTR7 repetitive sequence
  differential expression, Clone ID 1855389, HT29 t/ Aza (5d): −2.09
SEQ ID NO:25 chromosome 21 segment HS21C049
  differential expression, Clone ID 5207613, HT29 t/ Aza (5d): −2.10
SEQ ID NO:26 hypothetical protein
  differential expression, Clone ID 3207902, HT29 t/ Aza (5d): −1.29
SEQ ID NO:27 ZNFpT17
  differential expression, Clone ID 4999769, HT29 t/ Aza (5d): −1.26
SEQ ID NO:28 transketolase
  differential expression, Clone ID 408886, HT29 t/ Aza (5d): −1.31
SEQ ID NO:30 GAGE-8
  differential expression, Clone ID 4764233, HT29 t/ Aza (5d): −2.00
SEQ ID NO:31 GAGE-7B
  differential expression, Clone ID 2511379, HT29 t/ Aza (5d): −1.98
SEQ ID NO:33 cDNA clone YU62C03
  differential expression, Clone ID 2471817, HT29 t/ Aza (5d): −1.20
SEQ ID NO:34 MAGE-11 antigen
  differential expression, Clone ID 3333736, HT29 t/ Aza (5d): −1.38
SEQ ID NO:35 GAGE-8
  differential expression, Clone ID 1304365, HT29 t/ Aza (5d): −2.48
SEQ ID NO:37, 38 MAGE-4b antigen
  differential expression, Clone ID 2657056, HT29 t/ Aza (5d): −1.93
SEQ ID NO:39 MAGE-9 antigen
  differential expression, Clone ID 2507719, HT29 t/ Aza (5d): −2.32
SEQ ID NO:41 MAGE-1
  differential expression, Clone ID 4688, HT29 t/ Aza (5d): −2.03
SEQ ID NO:42 HM74
  differential expression, Clone ID 2068708, HT29 t/ Aza (5d): −1.17
SEQ ID NO:43 1-8D
  differential expression, Clone ID 23770, HT29 t/ Aza (5d): −2.99
SEQ ID NO:45 Incyte Unique
  differential expression, Clone ID 1616783, HT29 t/ Aza (5d): −0.84
SEQ ID NO:46 cDNA FLJ20120
  differential expression, Clone ID 820942, HT29 t/ Aza (5d): −0.58
SEQ ID NO:47 Incyte Unique
  differential expression, Clone ID 891322, HT29 t/ Aza (5d): 0.00
SEQ ID NO:48 U5 A RNA
  differential expression, Clone ID 2755836, HT29 t/ Aza (5d): −0.68
SEQ ID NO:49 phospholipid scramblase 1
  differential expression, Clone ID 1227521, HT29 t/ Aza (5d): −2.10
SEQ ID NO:50 retinoid inducible gene 1
  differential expression, Clone ID 2200842, HT29 t/ Aza (5d): −1.74
SEQ ID NO:51 interferon induced
  differential expression, Clone ID 2238363, HT29 t/ Aza (5d): −1.85
SEQ ID NO:53 TRAIL
  differential expression, Clone ID 1495382, HT29 t/ Aza (5d): −1.07
SEQ ID NO:55 rhoB
  differential expression, Clone ID 1998269, HT29 t/ Aza (5d): −0.92
SEQ ID NO:56 hepatitis C-associated microtubular aggregate
  differential expression, Clone ID 1919287, HT29 t/ Aza (5d): −3.12
SEQ ID NO:57 HE4 protein
  differential expression, Clone ID 2637446, HT29 t/ Aza (5d): −1.07
SEQ ID NO:58 Similar to keratin 7
  differential expression, Clone ID 1962141, HT29 t/ Aza (5d): −0.43
SEQ ID NO:60 Incyte Unique
  differential expression, Clone ID 4933404, HT29 t/ Aza (5d): −0.32
SEQ ID NO:61 Keratin 8
  differential expression, Clone ID 2150288, HT29 t/ Aza (5d): −0.07
  differential expression, Clone ID 2697455, HT29 t/ Aza (5d): −0.32
